Assays:
TYK2 = molecular target: T1, TYK2 (Homo sapiens, UniProt P29597); test: kinase binding constant, 11-point dose response (T7 phage, qPCR); details: >30 = no inhibition at highest concentration tested
T1 construct: TYK2(JH2domain-pseudokinase)

YSK4 = molecular target: T2, YSK4 (Homo sapiens, UniProt Q56UN5); test: as above; details: >30 = no inhibition at highest concentration tested
T2 sequence (Q56UN5 1-1328): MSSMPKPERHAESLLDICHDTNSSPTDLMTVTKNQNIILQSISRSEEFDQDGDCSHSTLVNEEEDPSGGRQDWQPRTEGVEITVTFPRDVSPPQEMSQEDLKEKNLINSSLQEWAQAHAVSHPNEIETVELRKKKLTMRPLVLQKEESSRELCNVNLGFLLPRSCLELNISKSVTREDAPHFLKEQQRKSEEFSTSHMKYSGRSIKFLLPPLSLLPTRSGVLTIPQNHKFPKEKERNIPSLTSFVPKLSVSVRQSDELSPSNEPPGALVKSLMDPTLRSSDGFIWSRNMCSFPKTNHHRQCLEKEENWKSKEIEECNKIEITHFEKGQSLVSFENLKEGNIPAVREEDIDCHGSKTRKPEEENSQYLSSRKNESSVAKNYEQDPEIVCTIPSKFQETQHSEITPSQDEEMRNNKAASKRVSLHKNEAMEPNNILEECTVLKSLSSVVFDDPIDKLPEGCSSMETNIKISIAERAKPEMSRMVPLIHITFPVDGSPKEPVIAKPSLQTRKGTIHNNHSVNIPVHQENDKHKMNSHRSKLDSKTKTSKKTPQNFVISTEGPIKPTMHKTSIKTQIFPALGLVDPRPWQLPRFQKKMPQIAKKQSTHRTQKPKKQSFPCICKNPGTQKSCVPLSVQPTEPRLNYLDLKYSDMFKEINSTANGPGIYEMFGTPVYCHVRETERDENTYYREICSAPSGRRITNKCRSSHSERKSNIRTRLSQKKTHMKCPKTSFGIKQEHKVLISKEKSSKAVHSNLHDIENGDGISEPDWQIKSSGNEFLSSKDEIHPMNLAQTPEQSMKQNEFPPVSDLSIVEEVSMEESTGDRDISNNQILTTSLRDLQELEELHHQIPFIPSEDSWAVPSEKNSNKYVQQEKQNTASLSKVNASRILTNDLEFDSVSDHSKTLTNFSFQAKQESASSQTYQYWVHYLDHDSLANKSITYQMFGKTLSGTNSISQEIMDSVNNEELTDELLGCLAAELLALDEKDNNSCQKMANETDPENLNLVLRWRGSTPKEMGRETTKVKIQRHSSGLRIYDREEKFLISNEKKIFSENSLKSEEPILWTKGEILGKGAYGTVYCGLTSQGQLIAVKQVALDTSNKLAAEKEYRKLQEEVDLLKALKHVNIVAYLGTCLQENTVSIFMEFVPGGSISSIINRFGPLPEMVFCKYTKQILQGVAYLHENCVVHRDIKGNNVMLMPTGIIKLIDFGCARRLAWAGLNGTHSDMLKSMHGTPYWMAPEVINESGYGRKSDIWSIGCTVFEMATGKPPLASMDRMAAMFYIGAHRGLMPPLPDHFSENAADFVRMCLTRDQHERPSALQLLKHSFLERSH

T1 sequence (P29597 whole entry): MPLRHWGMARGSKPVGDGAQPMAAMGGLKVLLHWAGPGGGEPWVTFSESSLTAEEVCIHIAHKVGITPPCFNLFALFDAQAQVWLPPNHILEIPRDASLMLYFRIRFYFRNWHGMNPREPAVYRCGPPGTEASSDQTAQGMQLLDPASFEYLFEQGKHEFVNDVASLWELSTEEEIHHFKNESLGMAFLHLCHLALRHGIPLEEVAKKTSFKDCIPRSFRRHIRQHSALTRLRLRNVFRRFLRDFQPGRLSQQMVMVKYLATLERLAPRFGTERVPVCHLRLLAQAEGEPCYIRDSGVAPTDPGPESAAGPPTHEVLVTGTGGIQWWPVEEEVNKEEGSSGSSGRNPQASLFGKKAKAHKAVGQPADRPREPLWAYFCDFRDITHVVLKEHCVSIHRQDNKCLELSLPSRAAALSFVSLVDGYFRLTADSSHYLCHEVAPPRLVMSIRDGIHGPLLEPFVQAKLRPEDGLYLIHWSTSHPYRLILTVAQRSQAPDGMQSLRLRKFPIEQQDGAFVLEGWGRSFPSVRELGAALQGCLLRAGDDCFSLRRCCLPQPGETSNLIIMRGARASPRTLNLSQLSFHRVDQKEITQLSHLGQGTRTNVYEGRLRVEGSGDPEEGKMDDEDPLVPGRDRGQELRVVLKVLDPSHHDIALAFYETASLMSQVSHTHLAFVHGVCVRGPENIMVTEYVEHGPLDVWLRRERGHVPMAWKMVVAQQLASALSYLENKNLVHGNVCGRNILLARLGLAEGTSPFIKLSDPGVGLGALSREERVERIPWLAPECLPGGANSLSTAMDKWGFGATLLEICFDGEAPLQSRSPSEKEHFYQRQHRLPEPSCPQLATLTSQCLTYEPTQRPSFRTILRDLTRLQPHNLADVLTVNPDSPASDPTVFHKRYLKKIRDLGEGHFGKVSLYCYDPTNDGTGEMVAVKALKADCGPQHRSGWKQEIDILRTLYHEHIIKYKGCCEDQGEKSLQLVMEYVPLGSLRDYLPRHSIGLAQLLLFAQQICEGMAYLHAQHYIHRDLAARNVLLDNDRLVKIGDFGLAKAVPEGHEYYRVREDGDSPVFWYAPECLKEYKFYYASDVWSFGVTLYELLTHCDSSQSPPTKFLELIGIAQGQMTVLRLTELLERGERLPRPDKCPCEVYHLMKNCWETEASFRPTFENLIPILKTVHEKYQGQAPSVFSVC

Nc1nc2c(-c3cnc4ccccc4c3)nccc2[nH]1 [drawing 36, 4-(quinolin-3-yl)-1H-imidazo[4,5-c]pyridin-2-amine]
Kd (TYK2): 290 nM

Nc1nc2c(-c3ccccn3)nccc2[nH]1 [drawing 35, 4-(pyrid-2-yl)-1H-imidazo[4,5-c]pyridin-2-amine]
Kd (YSK4): 220 nM
